In patent US9896441B2 (Lycera Corporation, priority 2014, dated 2018):

Tests used:
RORγ-LBD = target: T1, RORγ-LBD (Homo sapiens, UniProt P51449); assay: RORγ-Ligand Binding Domain (LBD) TR-FRET Assay; assay type: biochemical; conditions: RORγ-LBD TR-FRET
T1 construct: made in house; host or cells: SF9 cells (baculovirus); used as diluted lysate
T1 sequence (P51449 269-508 limits assumed): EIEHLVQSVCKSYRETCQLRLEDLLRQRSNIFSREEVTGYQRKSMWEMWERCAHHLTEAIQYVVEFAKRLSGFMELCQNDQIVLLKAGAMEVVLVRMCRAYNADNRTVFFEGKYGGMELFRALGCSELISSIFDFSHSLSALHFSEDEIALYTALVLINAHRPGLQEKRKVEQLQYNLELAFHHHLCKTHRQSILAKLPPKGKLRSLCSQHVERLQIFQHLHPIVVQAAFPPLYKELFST
Summary of the method: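 This TR-FRET coactivator assay pairs baculovirus-expressed His-RORγ-LBD (~3 nM final) with biotin-SRC1 LXXLL peptide at 200 nM final in pH 7.0 Tris/KCl/EDTA/DTT/BSA buffer.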

Gal4-RORγ-LBD = target: T2, Gal4-RORγ-LBD (Homo sapiens, UniProt P51449); assay: Gal4-RORγ Luciferase Reporter Assay in HEK-293T Cells; assay type: cell-based; conditions: HEK-293 cells, luciferase reporter, with ursolic acid
T2 construct: expressed in transfected cells
T2 sequence (P51449 269-508 limits assumed): T1 sequence (P51449 269-508 limits assumed)
Summary of the method: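 HEK-293 cells were co-transfected with Gal4-RORγ-LBD and a Gal4-luciferase reporter, then exposed overnight at 37 °C to compounds with […] ursolic acid present (0.2% DMSO). Luminescence was read with One-Glo after 10 min at RT, untreated signal was set as 100, and Max Response was taken as the upper plateau of a 4-parameter logistic fit.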

| Compound | EC50 (RORγ-LBD) [nM] | EC50 (Gal4-RORγ-LBD) [nM] |
| --- | --- | --- |
| CCOc1nn(CC)cc1S(=O)(=O)N1C[C@H](CCC(=O)OC)Oc2ccc(/C=C/c3ccccc3SC)cc21 [Example 89AV, (S,E)-methyl 3-(4-((3-ethoxy-1-ethyl-1H-pyrazol-4-yl)sulfonyl)-6-(2-(methylthio)styryl)-3,4-dihydro-2H-benzo[b][1,4]oxazin-2-yl)propanoate] | < 500 | < 500 |
| CCc1ccccc1/C=C/c1ccc2c(c1)N(S(=O)(=O)c1cccc(OC(F)F)c1)C[C@H](CCC(=O)OC)O2 [Example 89AX, (S,E)-methyl 3-(4-((3-(difluoromethoxy)phenyl)sulfonyl)-6-(2-ethylstyryl)-3,4-dihydro-2H-benzo[b][1,4]oxazin-2-yl)propanoate] | < 500 | 500 to 5000 |
| COc1ccccc1/C=C/c1ccc2c(c1)N(S(=O)(=O)c1cccc(OC(F)F)c1)C[C@H](CCC(=O)O)O2 [Example 89AY, (S,E)-3-(4-((3-(difluoromethoxy)phenyl)sulfonyl)-6-(2-methoxystyryl)-3,4-dihydro-2H-benzo[b][1,4]oxazin-2-yl)propanoic acid] | < 500 | 500 to 5000 |
| COC(=O)CC[C@H]1CN(S(=O)(=O)c2cccc(OC(F)F)c2)c2cc(/C=C/c3ccccc3OC)ccc2O1 [Example 89AZ, (S,E)-methyl 3-(4-((3-(difluoromethoxy)phenyl)sulfonyl)-6-(2-methoxystyryl)-3,4-dihydro-2H-benzo[b][1,4]oxazin-2-yl)propanoate] | < 500 | < 500 |
| COC(=O)CC[C@H]1CN(S(=O)(=O)c2cccc(OC(F)F)c2)c2cc(/C=C/c3c(F)cccc3Cl)ccc2O1 [Example 89B, (S,E)-methyl 3-(6-(2-chloro-6-fluorostyryl)-4-((3-(difluoromethoxy)phenyl)sulfonyl)-3,4-dihydro-2H-benzo[b][1,4]oxazin-2-yl)propanoate] | < 500 | 500 to 5000 |
| CCOc1nn(CC)cc1S(=O)(=O)N1C[C@H](CCC(=O)OC)Oc2ccc(/C=C/c3ccccc3OC(F)(F)F)cc21 [Example 89BB, (S,E)-methyl 3-(4-((3-ethoxy-1-ethyl-1H-pyrazol-4-yl)sulfonyl)-6-(2-(trifluoromethoxy)styryl)-3,4-dihydro-2H-benzo[b][1,4]-oxazin-2-yl)propanoate] | < 500 | 500 to 5000 |
| CCOc1nn(CC)cc1S(=O)(=O)N1C[C@H](CCC(=O)OC)Oc2ccc(/C=C/c3ccccc3Cl)cc21 [Example 89BD, (S,E)-methyl 3-(6-(2-chlorostyryl)-4-((3-ethoxy-1-ethyl-1H-pyrazol-4-yl)sulfonyl)-3,4-dihydro-2H-benzo[b][1,4]-oxazin-2-yl)propanoate] | < 500 | > 10000 |
| Cc1ccc(/C=C/c2ccc3c(c2)N(S(=O)(=O)c2cccc(OC(F)F)c2)C[C@H](CCC(=O)O)O3)cc1 [Example 89BE, (S,E)-3-(4-((3-(difluoromethoxy)phenyl)sulfonyl)-6-(4-methylstyryl)-3,4-dihydro-2H-benzo[b][1,4]oxazin-2-yl)propanoic acid] | 500 to 5000 | > 10000 |
| Cc1cc(O)cc(C)c1/C=C/c1ccc2c(c1)N(S(=O)(=O)c1cccc(C(F)(F)F)c1)C[C@H](CCC(=O)O)O2 [Example 89BG, (S,E)-3-(6-(4-hydroxy-2,6-dimethylstyryl)-4-((3-(trifluoromethyl)phenyl)sulfonyl)-3,4-dihydro-2H-benzo[b][1,4]oxazin-2-yl)propanoic acid] | < 500 | 500 to 5000 |
| O=C(O)CC[C@H]1CN(S(=O)(=O)c2cccc(C(F)(F)F)c2)c2cc(/C=C/c3ccc(Cl)cc3F)ccc2O1 [Example 89BH, (S,E)-3-(6-(4-chloro-2-fluorostyryl)-4-((3-(trifluoromethyl)phenyl)sulfonyl)-3,4-dihydro-2H-benzo[b][1,4]oxazin-2-yl)propanoic acid] | < 500 | > 10000 |
| O=C(O)CC[C@H]1CN(S(=O)(=O)c2cccc(C(F)(F)F)c2)c2cc(/C=C/c3ncccc3C(F)(F)F)ccc2O1 [Example 89BI, (S,E)-3-(4-((3-(trifluoromethyl)phenyl)sulfonyl)-6-(2-(3-(trifluoromethyl)pyridin-2-yl)vinyl)-3,4-dihydro-2H-benzo[b][1,4]oxazin-2-yl)propanoic acid] | < 500 | < 500 |
| Cc1cccnc1/C=C/c1ccc2c(c1)N(S(=O)(=O)c1cccc(C(F)(F)F)c1)C[C@H](CCC(=O)O)O2 [Example 89BJ, (S,E)-3-(6-(2-(3-methylpyridin-2-yl)vinyl)-4-((3-(trifluoromethyl)phenyl)sulfonyl)-3,4-dihydro-2H-benzo[b][1,4]oxazin-2-yl)propanoic acid] | < 500 | 500 to 5000 |
| O=C(O)CC[C@H]1CN(S(=O)(=O)c2cccc(C(F)(F)F)c2)c2cc(/C=C/c3ncccc3Cl)ccc2O1 [Example 89BK, (S,E)-3-(6-(2-(3-chloropyridin-2-yl)vinyl)-4-((3-(trifluoromethyl)phenyl)sulfonyl)-3,4-dihydro-2H-benzo[b][1,4]oxazin-2-yl)propanoic acid] | < 500 | < 500 |
| COC(=O)CC[C@H]1CN(S(=O)(=O)c2cccc(C(F)(F)F)c2)c2cc(/C=C/c3cccc(F)c3Cl)ccc2O1 [Example 89BQ, (S,E)-methyl 3-(6-(2-chloro-3-fluorostyryl)-4-((3-(trifluoromethyl)phenyl)sulfonyl)-3,4-dihydro-2H-benzo[b][1,4]oxazin-2-yl)propanoate] | < 500 | 500 to 5000 |
| N#Cc1cccc(/C=C/c2ccc3c(c2)N(S(=O)(=O)c2cccc(C(F)(F)F)c2)C[C@H](CCC(=O)O)O3)c1F [Example 89BW, (S,E)-3-(6-(3-cyano-2-fluorostyryl)-4-((3-(trifluoromethyl)phenyl)sulfonyl)-3,4-dihydro-2H-benzo[b][1,4]oxazin-2-yl)propanoic acid] | < 500 | > 10000 |
| O=C(O)CC[C@H]1CN(S(=O)(=O)c2cccc(OC(F)F)c2)c2cc(/C=C/c3ccccn3)ccc2O1 [Example 89C, (S,E)-3-(4-((3-(difluoromethoxy)-phenyl)sulfonyl)-6-(2-(pyridin-2-yl)vinyl)-3,4-dihydro-2H-benzo[b][1,4]oxazin-2-yl)propanoic acid] | 500 to 5000 | 5000 to 10000 |

The remaining lines, values ahead:

| EC50 (RORγ-LBD) [nM] | EC50 (Gal4-RORγ-LBD) [nM] | Compound |
| --- | --- | --- |
| < 500 | 500 to 5000 | CCc1ccccc1/C=C/c1ccc2c(c1)N(S(=O)(=O)c1cccc(OC(F)F)c1)C[C@H](CCC(=O)O)O2 [Example 89AW, (S,E)-3-(4-((3-(difluoromethoxy)phenyl)sulfonyl)-6-(2-ethylstyryl)-3,4-dihydro-2H-benzo[b][1,4]oxazin-2-yl)propanoic acid] |
| < 500 | 500 to 5000 | CCOc1nn(CC)cc1S(=O)(=O)N1C[C@H](CCC(=O)O)Oc2ccc(/C=C/c3ccccc3OC(F)(F)F)cc21 [Example 89BA, (S,E)-3-(4-((3-ethoxy-1-ethyl-1H-pyrazol-4-yl)sulfonyl)-6-(2-(trifluoromethoxy)styryl)-3,4-dihydro-2H-benzo[b][1,4]oxazin-2-yl)propanoic acid] |
| < 500 | 500 to 5000 | CCOc1nn(CC)cc1S(=O)(=O)N1C[C@H](CCC(=O)O)Oc2ccc(/C=C/c3ccccc3Cl)cc21 [Example 89BC, (S,E)-3-(6-(2-chlorostyryl)-4-((3-ethoxy-1-ethyl-1H-pyrazol-4-yl)sulfonyl)-3,4-dihydro-2H-benzo[b][1,4]oxazin-2-yl)propanoic acid] |
| 500 to 5000 | > 10000 | COC(=O)CC[C@H]1CN(S(=O)(=O)c2cccc(OC(F)F)c2)c2cc(/C=C/c3ccc(C)cc3)ccc2O1 [Example 89BF, (S,E)-methyl 3-(4-((3-(difluoromethoxy)phenyl)sulfonyl)-6-(4-methylstyryl)-3,4-dihydro-2H-benzo[b][1,4]oxazin-2-yl)propanoate] |
| < 500 | 500 to 5000 | Cc1cccc2c1c(/C=C/c1ccc3c(c1)N(S(=O)(=O)c1cccc(C(F)(F)F)c1)C[C@H](CCC(=O)O)O3)nn2C [Example 89BN, (S,E)-3-(6-(2-(1,4-dimethyl-1H-indazol-3-yl)vinyl)-4-((3-(trifluoromethyl)phenyl)sulfonyl)-3,4-dihydro-2H-benzo[b][1,4]oxazin-2-yl)propanoic acid] |
| < 500 | 500 to 5000 | Cn1nc(/C=C/c2ccc3c(c2)N(S(=O)(=O)c2cccc(C(F)(F)F)c2)C[C@H](CCC(=O)O)O3)c2c(Cl)cccc21 [Example 89BO, (S,E)-3-(6-(2-(4-chloro-1-methyl-1H-indazol-3-yl)vinyl)-4-((3-(trifluoromethyl)phenyl)sulfonyl)-3,4-dihydro-2H-benzo[b][1,4]-oxazin-2-yl)propanoic acid] |
| < 500 | > 10000 | O=C(O)CC[C@H]1CN(S(=O)(=O)c2cccc(C(F)(F)F)c2)c2cc(/C=C/c3cccc(F)c3Cl)ccc2O1 [Example 89BP, (S,E)-3-(6-(2-chloro-3-fluorostyryl)-4-((3-(trifluoromethyl)phenyl)sulfonyl)-3,4-dihydro-2H-benzo[b][1,4]oxazin-2-yl)propanoic acid] |
